The source of these data is US4265901A, “2-Oxybenzimidazoline compounds” (priority 1979, dated 1981).

In one assay the test system is Cotton. Kind of assay: Pre-emergence herbicide test, cotton. The format is in vivo. The procedure:
(§1) In this evaluation, each compound to be tested was dissolved in a 1:1 mixture of acetone and ethanol containing a small amount of Toximul R and Toximul S (each a sulfonate/nonionic blend produced by Stepan Chemical Company, Northfield, Illinois). The solution was then diluted with deionized water to a composition of the following concentrations, by weight: Plant species used as indicators of herbicidal activity were planted in galvanized pans (flats) 31.5 cm. long, 21.5 cm. wide, and 8.0 cm. deep. The bottoms of the flats had holes to facilitate drainage. The soil used was a 1:1 ratio by volume of masonry sand and shredded top soil. Flats that were to receive preemergence treatments were planted one day prior to, or on the same day treatments were applied. Flats that were to receive postemergence treatments were planted 9 days prior to treatment and placed in a growth chamber until the day of treatment. In the growth chamber, flats received 12 to 18 hours of light per day and were subject to temperatures of 75° to 85° F. The formulated test compound was applied uniformly to the indicator species with a modified DeVilbiss atomizer using air pressure of 3 to 5 psi. Each flat received 12.5 ml. of spray solution which was equal to 200 gallons/acre total spray volume. Plants were maintained in a greenhouse after treatment. Herbicidal effects of chemicals were evaluated by two injury rating systems 18 days after preemergence applications and 14 days after postemergence applications. The degree of plant injury was based on a 1 to 5 scale and a single numerical rating was assigned to each test species as follows: […]

The test system of a further assay is Sugar Beet. Kind of assay: Pre-emergence herbicide test, sugar beet. It counts as in vivo. As to the method: as §1
The test system of another assay is Cucumber. Kind of assay: Pre-emergence herbicide test, cucumber. The format is in vivo. As to the method:
as §1

In another assay the test system is two-spotted spider mite. In words: Two-spotted spider mite test. Also: ranges in brackets are in %. The format is in vivo, Tetranychus urticae. As to conditions: 4 days. As to the method:
(§2) In this evaluation, each compound to be tested was dissolved in a 1:1 mixture of acetone and ethanol containing a small amount of Toximul R and Toximul S (each a sulfonate/nonionic blend produced by Stephan Chemical Company, Northfield, Ill.). The solution was then diluted with distilled water to a concentration of 1000 ppm of test compound. Lesser concentration formulations were made by diluting a portion of the 1000 ppm solution with distilled water containing 225 mg. of Toximul R and 125 mg. of Toximul S per liter.
This test was conducted with nymphs and adults of Tetranychus urticae (Koch), Order Acarina, Family Tetranychidae.
This test was run using blue hubbard squash plants which were grown in vermiculite (insulation grade No. 1) in 5 oz. plastic Dixie cups. One cotyledon is removed from each plant to remain in the cups. On retests two plants were left in each cup and on regular initial tests one plant was left in each cup. Each cotyledon is infested by placing a mite infested trifoliate bean leaf on if. Infected plants in cups were held for one day, then sprayed to wetting with formulations containing 1000 ppm of the test compound, using the DeVilbiss atomizer with 5-6 psi air pressure. Retests were run at 100 ppm. Tests were read four days after treatment. Two unsprayed but infested plants were held as a control. Two infested plants were sprayed with a formulation containing 750 ppm of galecron [N'-(4-chloro-o-tolyl)-N,N-dimethylformamidine monohydrochloride] as a reference standard.

The test system of another assay is Jimsonweed. Kind of assay: Pre-emergence herbicide test, jimsonweed. The format is in vivo. The procedure: as §1
The next assay relates to Alfalfa. Kind of assay: Pre-emergence herbicide test, alfalfa. The format is in vivo. The procedure: as §1
A further assay relates to Morning-glory. Kind of assay: Pre-emergence herbicide test, morningglory. The format is in vivo, Ipomoea purpurea. As to the method:
as §1, with “soil. Seeds of seven indicator species were planted in rows perpendicular to the long axis of the flat, one species per row, and covered with 0.5 to 1.0 cm. of sterilized soil. Indicator species and approximate number of seeds planted were as follows:” for “soil.”

The test system of the next assay is housefly. In words: House fly contact test. As to all read-outs here: ranges in brackets are in %. The format is in vivo, Musca domestica. As to conditions: 1000 ppm; for Housefly Kd. (knockdown rating): 2 hours; for Housefly Cont. (mortality rating): 24 hours. As to the method:
as §2
This test was conducted with 4-day-old adults of Musca domestica (Linne), Order Diptera, Family Muscidae.
Rearing cages of 4-day-old adult house flies were placed in a cold room and held for one hour at 35° to 40° F. to chill so that the flies could be transferred to test cages. Approximately 100 flies were transferred to each test cage using a small scoop. The stainless steel test cages were five inches in diameter and one and three-fourths inches deep with a stainless steel screen bottom and screened removable friction fitting lid. The small hole on the side of the cage was kept stoppered except when a wick was inserted for feeding and watering.
Each cage was sprayed with 5 ml. of the test formulation containing 1000 ppm. of the test compound, using a DeVilbiss atomizer supplied with 5 psi air pressure. The nozzle was 33 inches from the top of the cage. After spraying, cages were allowed to dry.
Knockdown counts were made two hours after spraying and then the flies were fed and watered by inserting a four-inch wick of Fibre Flex Supreme, unbleached (16/32"), (manufactured by Sackner Products, Inc., Grand Rapids, Mich.) in the hole on the side of the cage. The cage was placed so that the wick hung down into a pan of five percent sugar solution in water.
One replicate was run for each test compound. One unsprayed cage was held as a control, one cage was sprayed as a negative control, and one cage was sprayed with a formulation containing 50 ppm. (0.005%) DDT as a reference standard.
Mortality counts were made 24 hours after spraying. The cage was rapped lightly. […] Moribund flies were counted as dead.

Where a name gives a salt, the structure may show the parent alone.

With `O=[N+]([O-])c1cc(C(F)(F)F)cc2c1NC(O)(C(F)(F)C(F)F)N2` (centres unmarked) [Example 2, 2-Hydroxy-2-(1,1,2,2-Tetrafluoroethyl)-4-Nitro-6-(Trifluoromethyl)Benzimidazoline, Sodium Salt, and Hydrate], the plant injury rating is 1 (no injury) in the assay with Cotton (1/2 lb/A); 1 (no injury) in the assay on Cotton (1/4 lb/A); 1 (no injury) in the assay with Cotton (2 lb/A); 2B with Cotton (4 lb/A); 2S with Sugar Beet (1/2 lb/A); 1 (no injury) in the assay with Sugar Beet (1/4 lb/A). The plant injury rating with Sugar Beet (2 lb/A) is given as 5D; in the assay on Sugar Beet (4 lb/A), 5N; with Cucumber (1/2 lb/A), 1 (no injury); in the assay with Cucumber (1/4 lb/A) it was 1 (no injury); in the assay with Cucumber (1 lb/A), 1 (no injury); in the assay with Cucumber (2 lb/A), 1 (no injury). For the same molecule, the plant injury rating was 4BS with Cucumber (4 lb/A); 1 (no injury) in the assay with Jimsonweed (1/2 lb/A); 1 (no injury) with Jimsonweed (1/4 lb/A); 1 (no injury) in the assay with Jimsonweed (1 lb/A); 3BS with Jimsonweed (2 lb/A); 5D in the assay on Jimsonweed (4 lb/A). Further, the plant injury rating in the assay with Alfalfa (1/2 lb/A) is given as 3SR; with Alfalfa (1/4 lb/A) it was 1 (no injury); in the assay on Alfalfa (2 lb/A), 5D; in the assay with Alfalfa (4 lb/A) it was 5N; in the assay with Morning-glory (1/2 lb/A) it was 1 (no injury); in the assay on Morning-glory (1/4 lb/A), 1 (no injury). Besides, the plant injury rating in the assay with Morning-glory (1 lb/A) is given as 1 (no injury); in the assay on Morning-glory (2 lb/A) it was 2B; with Morning-glory (4 lb/A), 4BS; in the assay on Morning-glory (8 lb/A) it was 5N. For the same molecule, the “2-Sp. Spider Mite Cont. (mortality rating)” value in the assay on two-spotted spider mite (100 ppm) and in the assay on two-spotted spider mite (1000 ppm) was 3 (100) in each case. Moreover, the “Housefly Kd. (knockdown rating)” value in the assay with housefly was 1 (1-50). In addition, the “Housefly Cont. (mortality rating)” value with housefly was 3 (100).

Take `O=[N+]([O-])c1cc(Cl)cc2c1NC(O)(C(F)F)N2` (centres unmarked) [Example 5, 2-Hydroxy-2-(Difluoromethyl)-4-Nitro-6-Chlorobenzimidazoline, Calcium Salt]: the “2-Sp. Spider Mite Cont. (mortality rating)” value with two-spotted spider mite (1000 ppm) is recorded as 3 (100). Further, the plant injury rating in the assay on Morning-glory (8 lb/A) is given as 3RS.

Turning to `O=[N+]([O-])c1cc(C(F)(F)F)cc2c1NC(O)(C(F)(F)C(F)F)N2O` (centres unmarked) [Example 12, 1,2-Dihydroxy-2-(1,1,2,2-Tetrafluoroethyl)-4-Nitro-6-(Trifluoromethyl)Benzimidazoline], the plant injury rating was 1 (no injury) with Cotton (1/2 lb/A); 1 (no injury) in the assay on Cotton (1 lb/A); 1 (no injury) in the assay on Cotton (2 lb/A); 1 (no injury) with Sugar Beet (1/2 lb/A); 1 (no injury) with Sugar Beet (1 lb/A); 3S with Sugar Beet (2 lb/A). The plant injury rating in the assay on Cucumber (1/2 lb/A), in the assay with Cucumber (1 lb/A), in the assay with Cucumber (2 lb/A), with Jimsonweed (1/2 lb/A), in the assay with Jimsonweed (1 lb/A) and in the assay with Jimsonweed (2 lb/A) was 1 (no injury) each time. Further, the plant injury rating was 1 (no injury) with Alfalfa (1/2 lb/A); 1 (no injury) in the assay with Alfalfa (1 lb/A); 3SB in the assay with Alfalfa (2 lb/A); 1 (no injury) with Morning-glory (1/2 lb/A); 1 (no injury) in the assay with Morning-glory (1 lb/A); 1 (no injury) with Morning-glory (2 lb/A). In the assay on Morning-glory (8 lb/A), the plant injury rating came out at 3BS. Further, the “2-Sp. Spider Mite Cont. (mortality rating)” value with two-spotted spider mite (1000 ppm) is listed as 3 (100). In addition, the “Housefly Kd. (knockdown rating)” value with housefly is 0 (0). In addition, the “Housefly Cont. (mortality rating)” value in the assay on housefly was 2 (51-99).
